Results as given in patent US20230111310A1, “CARBOXYLIC ACID DERIVATIVE-SUBSTITUTED IMINO ARYL COMPOUND, PREPARATION METHOD THEREFOR, HERBICIDAL COMPOSITION AND USE THEREOF” (Qingdao Kingagroot Chemical Compound Co., Ltd., priority 2020, published 2023).

Tests used:
Assay in all cases: Weeding effect in post-emergence stage
Type in all cases: in vivo
Echinochloa crusgalli = conditions: for Weeding effect in post-emergence stage, Echinochloa crusgalli (level): fresh weight control rate level; for Weeding effect in post-emergence stage, Echinochloa crusgalli: level of fresh weight growth control rate
How it was run: (§1)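 Compound, dissolved in acetone and diluted in water with Tween 80 plus methyl oleate EC (1.5 liter/ha), is sprayed onto 2-3 leaf potted plants. Rates span 7.5–500 g/ha. After 3 weeks of greenhouse culture, weeding effect is counted as the mean of triplicates.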

Eleusine indica = conditions: for Weeding effect in post-emergence stage, Eleusine indica (level): fresh weight control rate level; for Weeding effect in post-emergence stage, Eleusine indica: level of fresh weight growth control rate
How it was run: as §1

Digitaria sanguinalis = conditions: for Weeding effect in post-emergence stage, Digitaria sanguinalis (level): fresh weight control rate level; for Weeding effect in post-emergence stage, Digitaria sanguinalis: level of fresh weight growth control rate
How it was run: as §1

Alopecurus japonicus = conditions: for Weeding effect in post-emergence stage, Alopecurus japonicus (level): fresh weight control rate level; for Weeding effect in post-emergence stage, Alopecurus japonicus: level of fresh weight growth control rate
How it was run: as §1

Setaria viridis = conditions: for Weeding effect in post-emergence stage, Setaria viridis (level): fresh weight control rate level; for Weeding effect in post-emergence stage, Setaria viridis: level of fresh weight growth control rate
How it was run: as §1

Abutilon theophrasti = conditions: for Weeding effect in post-emergence stage, Abutilon theophrasti (level): fresh weight control rate level; for Weeding effect in post-emergence stage, Abutilon theophrasti: level of fresh weight growth control rate
How it was run: as §1

| SMILES | Weeding effect in post-emergence stage, Echinochloa crusgalli (level) (Echinochloa crusgalli; Dose 15 g/ha) | Weeding effect in post-emergence stage, Eleusine indica (level) (Eleusine indica; Dose 15 g/ha) | Weeding effect in post-emergence stage, Digitaria sanguinalis (level) (Digitaria sanguinalis; Dose 15 g/ha) | Weeding effect in post-emergence stage, Alopecurus japonicus (level) (Alopecurus japonicus; Dose 15 g/ha) | Weeding effect in post-emergence stage, Setaria viridis (level) (Setaria viridis; Dose 15 g/ha) | Weeding effect in post-emergence stage, Abutilon theophrasti (level) (Abutilon theophrasti; Dose 15 g/ha) | Weeding effect in post-emergence stage, Echinochloa crusgalli (Echinochloa crusgalli; Dose 15 g/ha) | Weeding effect in post-emergence stage, Eleusine indica (Eleusine indica; Dose 15 g/ha) | Weeding effect in post-emergence stage, Digitaria sanguinalis (Digitaria sanguinalis; Dose 15 g/ha) | Weeding effect in post-emergence stage, Alopecurus japonicus (Alopecurus japonicus; Dose 15 g/ha) | Weeding effect in post-emergence stage, Setaria viridis (Setaria viridis; Dose 15 g/ha) | Weeding effect in post-emergence stage, Abutilon theophrasti (Abutilon theophrasti; Dose 15 g/ha) | also measured |
| --- | --- | --- | --- | --- | --- | --- | --- | --- | --- | --- | --- | --- | --- |
| C=C(Cl)COC(=O)[C@@H](C)O/N=C/c1cc(-n2c(=O)cc(C(F)(F)F)n(C)c2=O)c(F)cc1Cl [501(R)] | 5 (Level 5: growth control rate is above 85%) | 5 (Level 5: growth control rate is above 85%) | 5 (Level 5: growth control rate is above 85%) | 5 (Level 5: growth control rate is above 85%) | 5 (Level 5: growth control rate is above 85%) | 5 (Level 5: growth control rate is above 85%) | – | – | – | – | – | – | – |
| CC(O/N=C/c1cc(-n2c(=O)cc(C(F)(F)F)n(C)c2=O)c(F)cc1Cl)C(=O)OCCC#N (racemic) [Compound 227] | – | – | – | – | – | – | 5 (Level 5: growth control rate is above 85%) | 5 (Level 5: growth control rate is above 85%) | 5 (Level 5: growth control rate is above 85%) | 5 (Level 5: growth control rate is above 85%) | 5 (Level 5: growth control rate is above 85%) | 5 (Level 5: growth control rate is above 85%) | – |
| CC(Cl)=CCOC(=O)C(C)ON=Cc1cc(-n2c(=O)cc(C(F)(F)F)n(C)c2=O)c(F)cc1Cl (stereo not drawn) [Compound 500] | 5 (Level 5: growth control rate is above 85%) | 5 (Level 5: growth control rate is above 85%) | 5 (Level 5: growth control rate is above 85%) | 5 (Level 5: growth control rate is above 85%) | 5 (Level 5: growth control rate is above 85%) | 5 (Level 5: growth control rate is above 85%) | – | – | – | – | – | – | – |
| C[C@@H](O/N=C/c1cc(-n2c(=O)cc(C(F)(F)F)n(C)c2=O)c(F)cc1Cl)C(=O)Oc1ccccc1 [262(R)] | – | – | – | – | – | – | 5 (Level 5: growth control rate is above 85%) | 5 (Level 5: growth control rate is above 85%) | 5 (Level 5: growth control rate is above 85%) | 5 (Level 5: growth control rate is above 85%) | 5 (Level 5: growth control rate is above 85%) | 5 (Level 5: growth control rate is above 85%) | – |
| CC(O/N=C/c1cc(-n2c(=O)cc(C(F)(F)F)n(C)c2=O)c(F)cc1Cl)C(=O)OCC1OCCO1 (stereo not drawn) [Compound 266] | – | – | – | – | – | – | – | – | – | – | – | – | Weeding effect in post-emergence stage, Echinochloa crusgalli (Echinochloa crusgalli; Dose 30 g/ha): 5 (Level 5: growth control rate is above 85%); Weeding effect in post-emergence stage, Eleusine indica (Eleusine indica; Dose 30 g/ha): 5 (Level 5: growth control rate is above 85%); Weeding effect in post-emergence stage, Digitaria sanguinalis (Digitaria sanguinalis; Dose 30 g/ha): 5 (Level 5: growth control rate is above 85%); Weeding effect in post-emergence stage, Alopecurus japonicus (Alopecurus japonicus; Dose 30 g/ha): 5 (Level 5: growth control rate is above 85%); Weeding effect in post-emergence stage, Setaria viridis (Setaria viridis; Dose 30 g/ha): 5 (Level 5: growth control rate is above 85%); Weeding effect in post-emergence stage, Abutilon theophrasti (Abutilon theophrasti; Dose 30 g/ha): 5 (Level 5: growth control rate is above 85%) |
| COC(=O)C(CCO)O/N=C/c1cc(-n2c(=O)cc(C(F)(F)F)n(C)c2=O)c(F)cc1Cl (stereo not drawn) [Compound 496] | 5 (Level 5: growth control rate is above 85%) | 5 (Level 5: growth control rate is above 85%) | 5 (Level 5: growth control rate is above 85%) | 5 (Level 5: growth control rate is above 85%) | 5 (Level 5: growth control rate is above 85%) | 5 (Level 5: growth control rate is above 85%) | – | – | – | – | – | – | – |
| C[C@@H](O/N=C/c1cc(-n2c(=O)n(C)c(=S)n(C)c2=O)c(F)cc1Cl)C(=O)OCc1ccco1 [26(R)] | – | – | – | – | – | – | 5 (Level 5: growth control rate is above 85%) | 5 (Level 5: growth control rate is above 85%) | 5 (Level 5: growth control rate is above 85%) | 5 (Level 5: growth control rate is above 85%) | 5 (Level 5: growth control rate is above 85%) | 5 (Level 5: growth control rate is above 85%) | – |
| C/C(Cl)=C/COC(=O)[C@@H](C)O/N=C/c1cc(-n2c(=O)cc(C(F)(F)F)n(C)c2=O)c(F)cc1Cl [500(R)] | 5 (Level 5: growth control rate is above 85%) | 5 (Level 5: growth control rate is above 85%) | 5 (Level 5: growth control rate is above 85%) | 5 (Level 5: growth control rate is above 85%) | 5 (Level 5: growth control rate is above 85%) | 5 (Level 5: growth control rate is above 85%) | – | – | – | – | – | – | – |
| CC(O/N=C/c1cc(-n2c(=O)cc(C(F)(F)F)n(C)c2=O)c(F)cc1Cl)C(=O)OCCN(C)C (stereo not drawn) [Compound 448] | 5 (Level 5: growth control rate is above 85%) | 5 (Level 5: growth control rate is above 85%) | 5 (Level 5: growth control rate is above 85%) | 5 (Level 5: growth control rate is above 85%) | 5 (Level 5: growth control rate is above 85%) | 5 (Level 5: growth control rate is above 85%) | – | – | – | – | – | – | – |
| C[C@@H](O/N=C/c1cc(-n2c(=O)cc(C(F)(F)F)n(C)c2=O)c(F)cc1Cl)C(N)=O [499(R)] | 5 (Level 5: growth control rate is above 85%) | 5 (Level 5: growth control rate is above 85%) | 5 (Level 5: growth control rate is above 85%) | 5 (Level 5: growth control rate is above 85%) | 5 (Level 5: growth control rate is above 85%) | 5 (Level 5: growth control rate is above 85%) | – | – | – | – | – | – | – |
| CCCCCCC(C)OC(=O)[C@@H](C)O/N=C/c1cc(-n2c(=O)cc(C(F)(F)F)n(C)c2=O)c(F)cc1Cl (stereo partly drawn) [207(R)] | – | – | – | – | – | – | 5 (Level 5: growth control rate is above 85%) | 5 (Level 5: growth control rate is above 85%) | 5 (Level 5: growth control rate is above 85%) | 5 (Level 5: growth control rate is above 85%) | 5 (Level 5: growth control rate is above 85%) | 5 (Level 5: growth control rate is above 85%) | – |
| CCCCCCCOC(=O)[C@@H](C)O/N=C/c1cc(-n2c(=O)cc(C(F)(F)F)n(C)c2=O)c(F)cc1Cl [205(R)] | – | – | – | – | – | – | 5 (Level 5: growth control rate is above 85%) | 5 (Level 5: growth control rate is above 85%) | 5 (Level 5: growth control rate is above 85%) | 5 (Level 5: growth control rate is above 85%) | 5 (Level 5: growth control rate is above 85%) | 5 (Level 5: growth control rate is above 85%) | – |
| CCCSC(=O)C(C)O/N=C/c1cc(-n2c(=O)cc(C(F)(F)F)n(C)c2=O)c(F)cc1Cl (stereo not drawn) [Compound 399] | 5 (Level 5: growth control rate is above 85%) | 5 (Level 5: growth control rate is above 85%) | 5 (Level 5: growth control rate is above 85%) | 5 (Level 5: growth control rate is above 85%) | 5 (Level 5: growth control rate is above 85%) | 5 (Level 5: growth control rate is above 85%) | – | – | – | – | – | – | – |
